These are literature values, as cited in patent publication US12557843B2, “Other than cannabinoids, flavonoids, and terpenes” (priority 2020, dated 2026).

One series has as its target acetylcholinesterase (Homo sapiens, UniProt P22303).
The target of another series is CB2 cannabinoid receptor (Homo sapiens, UniProt P34972).
Series [1] has as its system monoamine oxidase enzyme (MAO).

Chain of CB2 cannabinoid receptor (P34972 whole entry): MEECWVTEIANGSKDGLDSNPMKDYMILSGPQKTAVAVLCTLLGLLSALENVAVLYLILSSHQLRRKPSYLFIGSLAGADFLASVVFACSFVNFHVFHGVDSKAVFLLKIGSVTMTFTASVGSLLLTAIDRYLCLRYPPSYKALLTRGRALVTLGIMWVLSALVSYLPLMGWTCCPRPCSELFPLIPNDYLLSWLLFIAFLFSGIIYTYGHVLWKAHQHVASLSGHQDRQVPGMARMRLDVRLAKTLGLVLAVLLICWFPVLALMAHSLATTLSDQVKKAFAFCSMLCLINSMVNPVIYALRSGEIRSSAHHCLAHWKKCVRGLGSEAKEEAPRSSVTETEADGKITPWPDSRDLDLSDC
Chain of acetylcholinesterase (P22303 32-614, species assumed): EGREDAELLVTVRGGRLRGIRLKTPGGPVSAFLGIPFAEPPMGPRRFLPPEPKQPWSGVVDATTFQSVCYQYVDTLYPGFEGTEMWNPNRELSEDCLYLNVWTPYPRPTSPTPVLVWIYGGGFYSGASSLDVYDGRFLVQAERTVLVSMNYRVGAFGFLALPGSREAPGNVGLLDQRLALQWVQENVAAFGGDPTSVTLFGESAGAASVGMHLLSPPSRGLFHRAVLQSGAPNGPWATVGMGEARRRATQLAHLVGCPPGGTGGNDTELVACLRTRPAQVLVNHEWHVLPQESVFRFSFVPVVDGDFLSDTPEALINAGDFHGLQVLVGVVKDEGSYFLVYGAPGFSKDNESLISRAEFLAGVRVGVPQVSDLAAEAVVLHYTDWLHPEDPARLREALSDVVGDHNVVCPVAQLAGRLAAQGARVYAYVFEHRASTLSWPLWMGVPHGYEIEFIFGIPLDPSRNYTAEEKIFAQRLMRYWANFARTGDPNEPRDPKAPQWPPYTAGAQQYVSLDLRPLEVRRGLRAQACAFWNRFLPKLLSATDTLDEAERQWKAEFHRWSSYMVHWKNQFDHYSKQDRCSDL

With `CC1=CCC2CC1C2(C)C` (stereo not drawn) [A-pinene, α-pinene], on acetylcholinesterase, the acetylcholinesterase inhibition result is “acetylcholinesterase inhibitor”.

`C=C1CC/C=C(\C)CC[C@@H]2[C@@H]1CC2(C)C` [B-caryophyllene, β-caryophyllene]: the “CB2 cannabinoid receptor activity” value on CB2 cannabinoid receptor was “CB2 cannabinoid receptor agonist”. The “effects proven in animal models” value with laboratory animals (β-caryophyllene, animal models, not yet in humans) is “anti-inflammatory and analgesic effects”. As to `CC12CCC(CC1)C(C)(C)O2` [Eucalyptol, 1,8-cineol], the “in vitro anti-leukaemia activity” value in the series on leukaemia is listed as “in vitro anti-leukaemia properties”. For the compound `C=C(C)[C@H]1CC=C(C)CC1` [Limonene], in the series with breast cancer cells, the “apoptosis (cell death)” value is reported as “produces apoptosis”. Besides, in the series on laboratory animals (limonene, rise of serotonin and dopamine in the brain), the “effects suggested by studies on laboratory animals” value was “anxiolytic effects”. As for `C=CC(C)(O)CCC=C(C)C` (stereo not drawn) [Linalool], the “effects in laboratory animals” value with laboratory animals (linalool, mediated by adenosine A2A and glutamate receptors) is “analgesic effects”. For `C=CC(=C)CCC=C(C)C` [Myrcene], the “properties shown in studies on laboratory animals” value in the series with laboratory animals (myrcene, laboratory animals) was “sedative, hypnotic, analgesic and muscle relaxant properties”.

Turning to `O=c1cc(-c2ccc(O)cc2)oc2cc(O)cc(O)c12` [apigenin], the “action on the GABA receptors” value in the series on GABA receptors is “anxiolytic and sedative”. As for `COc1cc(-c2cc(=O)c3c(O)c(C/C=C(\C)CCC=C(C)C)c(O)cc3o2)ccc1O` [cannaflavin-A], in the series on PGE-2, the “effect on PGE-2” value is “inhibits”. In the series on PGE-2 (relative to aspirin), the “anti-inflammatory power compared with aspirin” value was “exponentially more powerful than aspirin”. Regarding `O=c1c(O)c(-c2ccc(O)c(O)c2)oc2cc(O)cc(O)c12` [quercitin, quercetin], the “effect on monoamine oxidase enzyme (MAO)” value in series [1] is “inhibits”.
